# Results reported in patent US5324821A, “Method of preparing a lipoprotein modified by incorporation of a lipophilic active substance” (Universite Droit et Sante Lille II, priority 1990, dated 1994).
# System: LDLs
# Assay: Quantities of drug incorporated into LDLs
# Type: physicochemical
# Conditions: ametantrone and mitoxantrone and esters; per particle of LDL; ametantrone esters by optical density at 614 nm; incubation 18 hours at 37° C.
# Procedure: One mg of drug is dissolved in the minimum quantity of an organic solvent (chloroform) then the solvent is evaporated under reduced pressure.
# Two hundred μl of washed Endolipide are then added. The tube is shaken vigorously, swirling for 1 minute to dissolve the drug in the lipid phase. The LDLs are then added in a quantity containing 1 mg of proteins, assayed by the method of Lowry modified by Peterson (see Lowry et al., J. Biol. Chem. 193, 265-275 (1951)) and 5 ml of LPDS. After stirring, the mixture is incubated for 18 hours at 37° C.
# The LDLs are then separated by ultracentrifugation according to a KBr density gradient (centrifugation for 24 hours at 4° C. and 40,000 rpm).
# The modified LDLs are then dialyzed against an NaCl solution, 140 mM, pH 8, then filtered under sterile conditions (0.22 μm) and stored under nitrogen.
# drugs (on the modified LDLs): the ametantrone esters were tested after precipitation of apolipoprotein B with isopropanol. For this purpose, 100 μl of LDL are added to 100 μl of isopropanol and stirred for 1 minute then left to stand overnight at 10° C. with stirring. The mixture is then centrifuged for 30 minutes at 300 rpm. The supernatant is removed and evaporated. The residue is treated with 1 ml of chloroform. The optical density is read off at a wavelength of 614 nm and compared to a reference range of the drug.
# The elliptinium esters are tested by HPLC according to the technique described by Samadi-Baboli (thesis cited above).
row,SMILES,quantity of drug incorporated into LDLs (uptake) [molecules/particle]
1,CCCCCCCC/C=C\CCCCCCCC(=O)OCCNCCNc1ccc(NCCNCCO)c2c1C(=O)c1ccccc1C2=O [Ametantrone monooleate],2
2,CCCCCCCC/C=C\CCCCCCCC(=O)OCCNCCNc1ccc(NCCNCCOC(=O)CCCCCCC/C=C\CCCCCCCC)c2c1C(=O)c1ccccc1C2=O [Ametantrone dioleate],2
3,CCCCCCCCCCCCCCCC(=O)OCCNCCNc1ccc(NCCNCCO)c2c1C(=O)c1ccccc1C2=O [Ametantrone monopalmitate],2
4,CC/C=C\C/C=C\C/C=C\CCCCCCCC(=O)OCCNCCNc1ccc(NCCNCCO)c2c1C(=O)c1ccccc1C2=O [Ametantrone monolinolenate],80
5,CC/C=C\C/C=C\C/C=C\CCCCCCCC(=O)OCCNCCNc1ccc(NCCNCCOC(=O)CCCCCCC/C=C\C/C=C\C/C=C\CC)c2c1C(=O)c1ccccc1C2=O [Ametantrone dilinolenate],90
6,CCCCCCCCCCCCCCCCCC(=O)OCCNCCNc1ccc(NCCNCCO)c2c1C(=O)c1ccccc1C2=O [Ametantrone monostearate],1
7,CC/C=C\C/C=C\C/C=C\CCCCCCCC(=O)OCCNCCNc1ccc(NCCNCCOC(=O)CCCCCCC/C=C\C/C=C\C/C=C\CC)c2c1C(=O)c1c(O)ccc(O)c1C2=O [Mitoxantrone dilinolenate],22
8,CCCCCCCCCCCCCCCC(=O)OCCNCCNc1ccc(NCCNCCOC(=O)CCCCCCCCCCCCCCC)c2c1C(=O)c1ccccc1C2=O [Ametantrone dipalmitate],2
9,"O=C1c2ccccc2C(=O)c2c(NCCNCCO)ccc(NCCNCCO)c21 [Ametantrone, reference compound]",1
10,CCCCCCCCCCCCCCCCCC(=O)OCCNCCNc1ccc(NCCNCCOC(=O)CCCCCCCCCCCCCCCCC)c2c1C(=O)c1ccccc1C2=O [Ametantrone distearate],1
11,"O=C1c2c(O)ccc(O)c2C(=O)c2c(NCCNCCO)ccc(NCCNCCO)c21 [Mitoxantrone, reference compound]",1

# Same assay, conditions: elliptinium esters, tested by HPLC; incubation 18 hours at 37° C.
row,quantity of drug incorporated into LDLs (uptake),SMILES
1,37 μg per mg of protein,CCCCCCCCCCCCCCCCCC(=O)Oc1ccc2[nH]c3c(C)c4cc[n+](C)cc4c(C)c3c2c1 [Elliptinium stearate]
2,58 μg per mg of protein,CCCCCCCCCCCCCCCC(=O)Oc1ccc2[nH]c3c(C)c4cc[n+](C)cc4c(C)c3c2c1 [Elliptinium palmitate]
3,83 μg per mg of protein,CCCCCCCC/C=C\CCCCCCCC(=O)Oc1ccc2[nH]c3c(C)c4cc[n+](C)cc4c(C)c3c2c1 [Elliptinium oleate]
